# Earlier results as cited in patent US6825217B2, “Carbinols for the treatment of neuropathic dysfunction” (Endo Pharmaceuticals, Inc., priority 2001, dated 2004).
# Details: rat, in vivo; cited from earlier work
structure (smiles),measurement,value
CSCC[C@@H]1NC(=O)[C@H](CC(C)C)NC(=O)[C@H](CCCNC(=N)N)NC(=O)[C@H](CO)NC(=O)[C@@H]2CSSC[C@@H]3NC(=O)[C@H](CO)NC(=O)CNC(=O)[C@H]([C@@H](C)O)NC(=O)[C@H](CSSC[C@H](N)C(=O)N[C@@H](CCCCN)C(=O)NCC(=O)N[C@@H](CCCCN)C(=O)NCC(=O)N[C@@H](C)C(=O)N[C@@H](CCCCN)C(=O)N2)NC(=O)[C@H](CSSC[C@@H](C(N)=O)NC(=O)[C@H](CCCCN)NC(=O)CNC(=O)[C@H](CO)NC(=O)[C@H](CCCNC(=N)N)NC3=O)NC(=O)[C@H](CC(=O)O)NC(=O)[C@H](Cc2ccc(O)cc2)NC1=O [SNX-111],duration of reduction of heat hyperalgesia and mechanical allodynia,at least three hours
same,heat hyperalgesia,reduced
same,mechanical allodynia,reduced
same,mechanical hyperalgesia,no effect
same,"responses to sensory stimuli, thermal or mechanical",no effect
